For one assay, the target named is T1, FGFR2 (Homo sapiens, UniProt P21802).
T1 construct: purchased Carna 08-134
Put plainly: FGFR2 Biochemical Caliper Assay (KinEASE-TK kit). As to conditions: 0.07 nM FGFR2; compound incubated with protein 10 min, reaction 45 min at RT; read-out: FGFR2 Cliper IC50. As to the method:
Compounds of the present invention were tested in a FGFR1, FGFR2, and FGFR3 Biochemical Caliper Assay.
(§1) Enzyme activity was monitored using KinEASE-TK kit (CisBio, Cat.No. 62TK0PEC) according to manufacturer's instructions. […] Final enzyme concentration was 0.2 nM for FGFR1 and FGFR3, 0.07 nM for FGFR2. Compounds were prepared in 10 mM DMSO and serially diluted into 10 concentrations by 3-fold dilution. Prior to the initiation of the reaction by adding TK-substrate/ATP mixture, the compounds were incubated with protein for 10 min at RT. […] Plates were quenched by adding TK-antibody-Cryptate and Sa-XL665 mixture. After 60 min in the stop solution, read the signal on microplate reader (Molecular Devices, i3x), excitation of 320 nm and emission of 615 nm and 665 nm with a […]. IC50 values were calculated using Prism 7 (GraphPad).

Another assay concerns the target T2, FGFR3 (Homo sapiens, UniProt P22607).
T2 construct: purchased Carna 08-135
Briefly: FGFR3 Biochemical Caliper Assay (KinEASE-TK kit). The settings on record: ratio FGFR3/FGFR2 of the biochemical assay. As to the method:
as §1, with “Compounds of the present invention were tested in a FGFR1, FGFR2, and FGFR3 Biochemical Caliper Assay. Enzyme” for “Enzyme”

A further assay has as its system SNU16 cells. Put plainly: SNU16 Cancer Cell Line Proliferation Assay (CellTiter-Glo). The assay is classed as cell-based. The settings on record: Homo sapiens, SNU-16, 72 h. The protocol:
Compounds of the present invention were also tested in a SNU16 Cancer Cell Line Proliferation Assay.
SNU16 cells were plated in 96-well clear bottom/white plate(Costar, Cat.No. 3610) at 5000 cells/well in 100 μl medium. Test compounds were prepared in a 10 mM DMSO stock solution and serially diluted into 9 concentrations by 3-fold dilution. 0.5 μl of each concentration of compound was added into the cell culture plates and DMSO as a control. The plates were incubated for 72 h at 37° C. and 5% CO2 incubator. 50 μl CellTiter-Glo reagent (Promega, G7572) was added into each well and then the plates were shaken gently for 10 min at room temperature. Luminescence was read on microplate reader (Molecular Devices, i3x), IC50 values were calculated using Prism 7 (GraphPad).
A general note: In ATP-based viability assays light output follows the ATP content of the culture.

The target in another assay is T3, FGFR1 (Homo sapiens, UniProt P11362).
T3 construct: purchased Carna 08-133
T3 sequence (P11362 22-822): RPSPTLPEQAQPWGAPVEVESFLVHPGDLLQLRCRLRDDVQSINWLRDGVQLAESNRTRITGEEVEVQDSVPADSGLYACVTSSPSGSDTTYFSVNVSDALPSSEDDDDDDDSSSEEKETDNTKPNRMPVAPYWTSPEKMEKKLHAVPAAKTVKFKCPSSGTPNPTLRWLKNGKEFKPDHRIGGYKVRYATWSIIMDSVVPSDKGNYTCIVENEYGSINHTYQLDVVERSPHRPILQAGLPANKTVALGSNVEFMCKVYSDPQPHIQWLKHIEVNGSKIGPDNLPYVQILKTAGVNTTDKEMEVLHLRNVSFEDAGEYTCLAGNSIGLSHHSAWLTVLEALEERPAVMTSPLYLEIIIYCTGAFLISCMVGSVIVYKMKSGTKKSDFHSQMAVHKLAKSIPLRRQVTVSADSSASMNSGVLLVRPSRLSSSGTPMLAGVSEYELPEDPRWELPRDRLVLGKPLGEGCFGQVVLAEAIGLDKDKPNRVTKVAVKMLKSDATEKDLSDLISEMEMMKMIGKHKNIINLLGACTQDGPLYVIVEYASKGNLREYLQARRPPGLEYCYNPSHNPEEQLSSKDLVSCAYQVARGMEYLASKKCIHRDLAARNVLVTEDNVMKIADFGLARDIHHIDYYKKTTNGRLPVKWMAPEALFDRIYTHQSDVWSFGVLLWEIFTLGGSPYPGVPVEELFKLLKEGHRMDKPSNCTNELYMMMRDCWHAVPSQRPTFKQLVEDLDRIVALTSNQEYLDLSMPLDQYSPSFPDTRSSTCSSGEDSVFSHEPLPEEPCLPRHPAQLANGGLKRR
Put plainly: FGFR1 Biochemical Caliper Assay (KinEASE-TK kit). As to conditions: ratio FGFR1/FGFR2 of the biochemical assay. The protocol:
as §1, with “Compounds of the present invention were tested in a FGFR1, FGFR2, and FGFR3 Biochemical Caliper Assay. Enzyme” for “Enzyme”

The text below walks through data of patent US20240383905A1, “FGFR INHIBITORS AND METHODS OF USE THEREOF” (3H PHARMACEUTICALS CO., LTD., priority 2021, published 2024).

T1 sequence (P21802 22-821): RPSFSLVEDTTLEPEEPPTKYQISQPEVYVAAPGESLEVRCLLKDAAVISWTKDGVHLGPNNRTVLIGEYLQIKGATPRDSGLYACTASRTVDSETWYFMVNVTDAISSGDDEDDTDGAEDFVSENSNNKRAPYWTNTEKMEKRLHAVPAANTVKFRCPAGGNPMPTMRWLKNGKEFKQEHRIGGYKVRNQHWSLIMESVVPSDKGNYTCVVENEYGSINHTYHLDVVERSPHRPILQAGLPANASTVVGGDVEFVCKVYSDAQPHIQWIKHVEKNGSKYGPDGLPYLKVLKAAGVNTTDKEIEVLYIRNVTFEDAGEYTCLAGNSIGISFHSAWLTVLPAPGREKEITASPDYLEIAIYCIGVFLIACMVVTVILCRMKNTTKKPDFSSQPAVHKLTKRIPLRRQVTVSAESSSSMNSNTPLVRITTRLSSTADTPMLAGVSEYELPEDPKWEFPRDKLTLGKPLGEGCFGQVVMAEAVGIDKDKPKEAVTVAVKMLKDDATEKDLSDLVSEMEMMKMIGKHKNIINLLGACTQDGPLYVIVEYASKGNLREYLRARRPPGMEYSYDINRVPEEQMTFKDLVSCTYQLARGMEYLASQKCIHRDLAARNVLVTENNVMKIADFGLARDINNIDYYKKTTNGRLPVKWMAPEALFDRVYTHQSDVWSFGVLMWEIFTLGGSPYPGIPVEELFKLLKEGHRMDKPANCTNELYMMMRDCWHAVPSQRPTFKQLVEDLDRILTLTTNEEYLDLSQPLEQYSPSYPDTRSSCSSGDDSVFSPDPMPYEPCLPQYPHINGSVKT
T2 sequence (P22607 23-806): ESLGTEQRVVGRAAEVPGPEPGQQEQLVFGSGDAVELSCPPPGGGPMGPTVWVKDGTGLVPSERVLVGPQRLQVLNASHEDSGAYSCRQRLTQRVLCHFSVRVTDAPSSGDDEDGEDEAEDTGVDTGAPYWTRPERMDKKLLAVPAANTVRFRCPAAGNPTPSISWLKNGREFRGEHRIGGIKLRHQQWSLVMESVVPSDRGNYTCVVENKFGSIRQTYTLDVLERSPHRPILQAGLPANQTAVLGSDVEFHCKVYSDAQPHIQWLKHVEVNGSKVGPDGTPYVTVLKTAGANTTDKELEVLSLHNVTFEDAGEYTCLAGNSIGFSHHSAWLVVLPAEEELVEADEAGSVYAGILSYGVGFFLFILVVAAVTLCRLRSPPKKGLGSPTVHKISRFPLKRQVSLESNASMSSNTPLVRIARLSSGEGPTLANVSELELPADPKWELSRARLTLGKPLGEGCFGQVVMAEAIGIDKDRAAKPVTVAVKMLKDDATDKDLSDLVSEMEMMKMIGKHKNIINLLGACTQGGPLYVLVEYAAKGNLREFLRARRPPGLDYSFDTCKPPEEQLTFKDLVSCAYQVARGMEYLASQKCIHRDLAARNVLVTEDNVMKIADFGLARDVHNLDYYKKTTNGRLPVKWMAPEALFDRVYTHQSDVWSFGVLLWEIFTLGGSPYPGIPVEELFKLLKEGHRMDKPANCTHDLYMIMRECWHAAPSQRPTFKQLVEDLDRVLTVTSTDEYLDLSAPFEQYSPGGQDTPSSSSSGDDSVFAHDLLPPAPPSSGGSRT

The IC50 is the concentration at which inhibition is half-maximal. Turning to `C=C(F)C(=O)Nc1ccc(-c2c(-c3ccc(C(=O)NCC(F)(F)F)c(OC)c3)c3c(N)ncc(C#N)c3n2C)c(F)c1` [Compound 151, 4-(4-amino-7-cyano-2-(2-fluoro-4-(2-fluoroacrylamido)phenyl)-1-methyl-1H-pyrrolo [3,2-c]pyridin-3-yl)-2-methoxy-N-(2,2,2-trifluoroethyl)benzamide], the half-inhibitory concentration (IC50) on FGFR2 is 0.005 to 0.01 µM; in the assay with SNU16 cells, at most 0.01 µM. In addition, the “Selectivity FGFR3/FGFR2” value at FGFR3 is reported as “A+ (Selectivity of FGFR3/FGFR2 greater or equal to 150)”. For the same compound, the “Selectivity FGFR1/FGFR2” value on FGFR1 is on record as “A+ (Selectivity of FGFR1/FGFR2 greater or equal to 500)”.

As to `C=CC(=O)Nc1ccc(-c2c(-c3ccc(C(=O)NC4CC4)c(OC)c3)c3c(N)ncc(C#N)c3n2C)c(F)c1` [Compound 157, 4-(2-(4-acrylamido-2-fluorophenyl)-4-amino-7-cyano-1-methyl-1H-pyrrolo[3,2-c]pyridin-3-yl)-N-cyclopropyl-2-methoxybenzamide], the half-inhibitory concentration (IC50) on FGFR2 is under 0.005 µM; in the assay on SNU16 cells, at most 0.01 µM. Moreover, at FGFR3, the “Selectivity FGFR3/FGFR2” value is “B (Selectivity of FGFR3/FGFR2 less than 100 but greater than or equal to 25)”. For the same compound, the “Selectivity FGFR1/FGFR2” value on FGFR1 is on record as “B (Selectivity of FGFR1/FGFR2 less than 300 but greater than or equal to 200)”.

`C=C(C)C(=O)Nc1ccc(-c2c(-c3ccc(Oc4cccc(C)n4)cc3)c3c(N)ncc(C#N)c3n2C)c(F)c1` [Compound 468, N-(4-(4-amino-7-cyano-1-methyl-3-(4-((6-methylpyridin-2-yl)oxy)phenyl)-1H-pyrrolo[3,2-c]pyridin-2-yl)-3-fluorophenyl) methacrylamide]: the IC50 on FGFR2 was over 0.01 µM; with SNU16 cells it was at most 0.01 µM. Further, the “Selectivity FGFR3/FGFR2” value at FGFR3 is recorded as “A+ (Selectivity of FGFR3/FGFR2 greater or equal to 150)”. Also, the “Selectivity FGFR1/FGFR2” value on FGFR1 is “A+ (Selectivity of FGFR1/FGFR2 greater or equal to 500)”.

Regarding `C=C(F)C(=O)Nc1ccc(-c2[nH]c3c(C#N)cnc(N)c3c2-c2ccc(C(=O)NC3(C)CC3)c(OC)c2)cc1` [Compound 321, 4-(4-amino-7-cyano-2-(4-(2-fluoroacrylamido)phe-ny1)-1H-pyrrolo[3,2-c]pyridin-3-yl)-2-methoxy-N-(1-methylcyclopropyl)benzamide], the IC50 on FGFR2 was 0.005 to 0.01 µM; in the assay with SNU16 cells, at most 0.01 µM. Further, the “Selectivity FGFR3/FGFR2” value at FGFR3 is “A+ (Selectivity of FGFR3/FGFR2 greater or equal to 150)”. For the same compound, on FGFR1, the “Selectivity FGFR1/FGFR2” value is reported as “C (Selectivity of FGFR1/FGFR2 less than 200 but greater than or equal to 100)”.

In the case of `C=CC(=O)Nc1ccc(-c2c(-c3ccc(C(=O)NC4CC4)c(OC)c3)c3c(N)ncc(C#N)c3n2C2CC2)cc1` [Compound 359, 4-(2-(4-acrylamidophenyl)-4-amino-7-cyano-1-cyclopropyl-1H-pyrrolo[3,2-c]pyridin-3-yl)-N-cyclopropyl-2-methoxybenzamide], the IC50 on FGFR2 was over 0.01 µM. Moreover, the “Selectivity FGFR3/FGFR2” value at FGFR3 is listed as “B (Selectivity of FGFR3/FGFR2 less than 100 but greater than or equal to 25)”. Besides, the “Selectivity FGFR1/FGFR2” value at FGFR1 is given as “A+ (Selectivity of FGFR1/FGFR2 greater or equal to 500)”.

For `C=C(F)C(=O)Nc1ccc(-c2nn3ncnc(N)c3c2-c2ccc(C(=O)NC3CC3)c(OC)c2)c(F)c1` [Compound 153, 4-(4-amino-6-(2-fluoro-4-(2-fluoroacrylamido)phenyl)pyrazolo[5,1-f][1,2,4]triazin-5-yl)-N-cyclopropyl-2-methoxybenzamide], the IC50 on FGFR2 was under 0.005 µM; in the assay on SNU16 cells, at most 0.01 µM. In addition, at FGFR3, the “Selectivity FGFR3/FGFR2” value is listed as “A+ (Selectivity of FGFR3/FGFR2 greater or equal to 150)”. Also, at FGFR1, the “Selectivity FGFR1/FGFR2” value is reported as “A+ (Selectivity of FGFR1/FGFR2 greater or equal to 500)”.

For `C=CC(=O)Nc1ccc(-c2c(-c3ccc(C(=O)NC4(C)CC4)c(OC)c3)c3c(N)ncc(C#N)c3n2C)cc1` [Compound 169], the figures for the IC50 on FGFR2 and with SNU16 cells were under 0.005 µM and at most 0.01 µM, respectively. Further, on FGFR3, the “Selectivity FGFR3/FGFR2” value is “B (Selectivity of FGFR3/FGFR2 less than 100 but greater than or equal to 25)”. The “Selectivity FGFR1/FGFR2” value on FGFR1 is “A+ (Selectivity of FGFR1/FGFR2 greater or equal to 500)”.

Regarding `C=CC(=O)Nc1ccc(-n2nc3c(=O)[nH]nc(N)c3c2-c2ccc(Oc3cccc(C)n3)c(OC)c2)cc1` [Compound 115], the IC50 on FGFR2 lay in the range of 0.005 to 0.01 µM; in the assay with SNU16 cells, 0.01 to 0.05 µM. Also, at FGFR3, the “Selectivity FGFR3/FGFR2” value is on record as “A+ (Selectivity of FGFR3/FGFR2 greater or equal to 150)”. Also, on FGFR1, the “Selectivity FGFR1/FGFR2” value is “C (Selectivity of FGFR1/FGFR2 less than 200 but greater than or equal to 100)”.

Consider `C=CC(=O)Nc1ccc(-c2nn3ncnc(N)c3c2-c2ccc(Oc3ncc(C)cn3)c(F)c2)cc1` [Compound 376, N-(4-(4-amino-5-(3-fluoro-4-((5-methylpyrimidin-2-yl)oxy)phenyl)pyrazolo [5,1-f][1,2,4]triazin-6-yl)phenyl)acrylamide], for which, at FGFR2, the half-maximal inhibitory concentration (IC50) is over 0.01 µM. In addition, the “Selectivity FGFR3/FGFR2” value at FGFR3 is “A+ (Selectivity of FGFR3/FGFR2 greater or equal to 150)”. On FGFR1, the “Selectivity FGFR1/FGFR2” value was “A+ (Selectivity of FGFR1/FGFR2 greater or equal to 500)”.

For the compound `C=CC(=O)Nc1ccc(-c2nn3ncnc(N)c3c2-c2ccc(Oc3nccc(CC)n3)c(F)c2)cc1` [Compound 400, N-(4-(4-amino-5-(4-((4-ethylpyrimidin-2-yl)oxy)-3-fluorophenyl)pyrazolo[5,1-f][1,2,4]triazin-6-yl)phenyl)acrylamide], the figures for the IC50 at FGFR2 and in the assay on SNU16 cells were under 0.005 µM and at most 0.01 µM, respectively. The “Selectivity FGFR3/FGFR2” value at FGFR3 is reported as “A+ (Selectivity of FGFR3/FGFR2 greater or equal to 150)”. For the same compound, the “Selectivity FGFR1/FGFR2” value on FGFR1 is on record as “A+ (Selectivity of FGFR1/FGFR2 greater or equal to 500)”.

In the case of `C=C(F)C(=O)Nc1ccc(-c2nn3ncnc(N)c3c2-c2ccc(C(=O)NCC(C)(F)F)c(OC)c2)cc1` [Compound 362, 4-(4-amino-6-(4-(2-fluoroacrylamido)phe-nyl)pyrazolo[5,1-f][1,2,4]triazin-5-yl)-N-(2,2-difluoropropyl)-2-methoxybenzamide], the IC50 at FGFR2 is over 0.01 µM. The “Selectivity FGFR3/FGFR2” value on FGFR3 is “A (Selectivity of FGFR3/FGFR2 less than 150 but greater than or equal to 100)”. Further, the “Selectivity FGFR1/FGFR2” value at FGFR1 is listed as “A+ (Selectivity of FGFR1/FGFR2 greater or equal to 500)”.

Consider `C=C(F)C(=O)Nc1ccc(-c2nn3ncnc(N)c3c2-c2ccc(C(=O)NC3CCCC3)c(OC)c2)cc1` [Compound 93, 4-(4-amino-6-(4-(2-fluoroacrylamido)phe-nyl)pyrazolo[5,1-f] [1,2,4]triazin-5-yl)-N-cyclopentyl-2-methoxybenzamide], for which the half-maximal inhibitory concentration (IC50) was over 0.01 µM on FGFR2 and at most 0.01 µM in the assay on SNU16 cells. Besides, the “Selectivity FGFR3/FGFR2” value at FGFR3 is reported as “A+ (Selectivity of FGFR3/FGFR2 greater or equal to 150)”. Besides, at FGFR1, the “Selectivity FGFR1/FGFR2” value is listed as “A+ (Selectivity of FGFR1/FGFR2 greater or equal to 500)”.

With `C=CC(=O)Nc1ccc(-c2nn3ncnc(N)c3c2-c2ccc(C(=O)NC3(C#N)CC3)c(OC)c2)cc1` [Compound 268, 4-(6-(4-acrylamidophenyl)-4-aminopyrazolo[5,1-f][1,2,4]triazin-5-yl)-N-(1-cyanocyclopropyl)-2-methoxybenzamide], on FGFR2, the half-inhibitory concentration (IC50) is 0.005 to 0.01 µM. In addition, the “Selectivity FGFR3/FGFR2” value at FGFR3 is recorded as “A+ (Selectivity of FGFR3/FGFR2 greater or equal to 150)”. For the same compound, the “Selectivity FGFR1/FGFR2” value on FGFR1 is given as “C (Selectivity of FGFR1/FGFR2 less than 200 but greater than or equal to 100)”.

In the case of `C=C(F)C(=O)Nc1ccc(-c2[nH]c3c(C#N)cnc(N)c3c2-c2ccc(C(=O)NC3CC3(F)F)c(OC)c2)cc1` (stereo not drawn) [Compound 320, 4-(4-amino-7-cyano-2-(4-(2-fluoroacrylamido)phe-nyl)-1H-pyrrolo[3,2-c]pyridin-3-yl)-N-(2,2-difluorocyclopropyl)-2-methoxybenzamide], on FGFR2, the half-inhibitory concentration (IC50) is under 0.005 µM. At FGFR3, the “Selectivity FGFR3/FGFR2” value is “A (Selectivity of FGFR3/FGFR2 less than 150 but greater than or equal to 100)”. Moreover, the “Selectivity FGFR1/FGFR2” value on FGFR1 is “C (Selectivity of FGFR1/FGFR2 less than 200 but greater than or equal to 100)”.
